The values that follow come from publication doi:10.1101/2025.07.01.662609v1, “BtuJ1, a novel surface-exposed B12-binding protein in Bacteroidetes, functions as an extracellular vitamin reservoir that enhances fitness” (biorxiv, 2025).

For the assay, the target named is T1, BtuJ1 (BT1491) (Bacteroides thetaiotaomicron, UniProt Q8A7N3).
T1 construct: gene BT_1491; mature part without lipid anchor residue (signal peptide cleaved between 21 and 22); His-tagged, pET28 NcoI/XhoI, E. coli BL21(DE3); modelled from Met29
T1 sequence (Q8A7N3 23-256): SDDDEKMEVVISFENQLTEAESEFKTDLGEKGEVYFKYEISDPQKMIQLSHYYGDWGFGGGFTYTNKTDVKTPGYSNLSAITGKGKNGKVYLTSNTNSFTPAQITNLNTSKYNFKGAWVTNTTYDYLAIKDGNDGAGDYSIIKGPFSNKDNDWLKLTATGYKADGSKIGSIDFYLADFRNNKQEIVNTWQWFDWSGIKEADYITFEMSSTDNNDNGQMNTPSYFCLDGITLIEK
The assay is described as follows: binding shown in supplementary figure, method not stated in main text. To be noted: AdoCbl added at 1:2 protein:corrinoid, then SEC in 10 mM Hepes, 100 mM NaCl, pH 7.5.

Molecules are shown by their SMILES.

For `C/C1=C2/[N-][C@H]([C@H](CC(N)=O)[C@@]2(C)CCC(=O)NC[C@@H](C)OP(=O)([O-])O[C@H]2C(O)[C@@H](n3cnc4cc(C)c(C)cc43)O[C@@H]2CO)[C@]2(C)N=C(/C(C)=C3N=C(/C=C4N=C1[C@@H](CCC(N)=O)C\4(C)C)[C@@H](CCC(N)=O)[C@]\3(C)CC(N)=O)[C@@H](CCC(N)=O)[C@]2(C)CC(N)=O.[CH2-][C@H]1O[C@@H](n2cnc3c(N)ncnc32)[C@H](O)[C@@H]1O.[Co+3]` (stereo partly shown) [AdoCbl, adenosylcobalamin], the “binding shown in supplementary figure, method not stated in main text” value is “BtuJ1 also binds adenosylcobalamin, which has a bulkier upper ligand compared to other cobalamins”.
